Laboratory results: patent publication US9371320B2, “Heterocyclic compound” (TAKEDA PHARMACEUTICAL COMPANY LIMITED, priority 2012, dated 2016)
Counter-ions that a name gives are not always drawn.

What was measured:
[1] = target: T1, JAK1 (Homo sapiens, UniProt P23458); test: JAK1 enzyme inhibition test (LANCE method); format: biochemical; details: test compound 1 μM; for inhibition at 1 µM: read-out: Inhibitory rate (%) JAK1 1 μM
T1 construct: purchased Invitrogen
Outline: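 Reactions ran 1 h at room temperature in HEPES pH 7.5/MgCl2 buffer, with ATP solution at 150 μM and JAK1 and ULight peptide solutions at 187.5 ng/mL and 300 nM. Reactions were stopped with EDTA, and phosphorylation was read by Eu antibody time-resolved fluorescence at 665 nm. Inhibition was scaled to a no-enzyme control as 100%.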

[2] = target: T2, Tyk2 (Homo sapiens, UniProt P29597); test: Tyk2 enzyme inhibition test (LANCE method); format: biochemical; details: test compound 1 μM; for inhibition at 1 µM: read-out: Inhibitory rate (%) Tyk2 1 μM
T2 construct: purchased Invitrogen
T2 sequence (P29597 whole entry): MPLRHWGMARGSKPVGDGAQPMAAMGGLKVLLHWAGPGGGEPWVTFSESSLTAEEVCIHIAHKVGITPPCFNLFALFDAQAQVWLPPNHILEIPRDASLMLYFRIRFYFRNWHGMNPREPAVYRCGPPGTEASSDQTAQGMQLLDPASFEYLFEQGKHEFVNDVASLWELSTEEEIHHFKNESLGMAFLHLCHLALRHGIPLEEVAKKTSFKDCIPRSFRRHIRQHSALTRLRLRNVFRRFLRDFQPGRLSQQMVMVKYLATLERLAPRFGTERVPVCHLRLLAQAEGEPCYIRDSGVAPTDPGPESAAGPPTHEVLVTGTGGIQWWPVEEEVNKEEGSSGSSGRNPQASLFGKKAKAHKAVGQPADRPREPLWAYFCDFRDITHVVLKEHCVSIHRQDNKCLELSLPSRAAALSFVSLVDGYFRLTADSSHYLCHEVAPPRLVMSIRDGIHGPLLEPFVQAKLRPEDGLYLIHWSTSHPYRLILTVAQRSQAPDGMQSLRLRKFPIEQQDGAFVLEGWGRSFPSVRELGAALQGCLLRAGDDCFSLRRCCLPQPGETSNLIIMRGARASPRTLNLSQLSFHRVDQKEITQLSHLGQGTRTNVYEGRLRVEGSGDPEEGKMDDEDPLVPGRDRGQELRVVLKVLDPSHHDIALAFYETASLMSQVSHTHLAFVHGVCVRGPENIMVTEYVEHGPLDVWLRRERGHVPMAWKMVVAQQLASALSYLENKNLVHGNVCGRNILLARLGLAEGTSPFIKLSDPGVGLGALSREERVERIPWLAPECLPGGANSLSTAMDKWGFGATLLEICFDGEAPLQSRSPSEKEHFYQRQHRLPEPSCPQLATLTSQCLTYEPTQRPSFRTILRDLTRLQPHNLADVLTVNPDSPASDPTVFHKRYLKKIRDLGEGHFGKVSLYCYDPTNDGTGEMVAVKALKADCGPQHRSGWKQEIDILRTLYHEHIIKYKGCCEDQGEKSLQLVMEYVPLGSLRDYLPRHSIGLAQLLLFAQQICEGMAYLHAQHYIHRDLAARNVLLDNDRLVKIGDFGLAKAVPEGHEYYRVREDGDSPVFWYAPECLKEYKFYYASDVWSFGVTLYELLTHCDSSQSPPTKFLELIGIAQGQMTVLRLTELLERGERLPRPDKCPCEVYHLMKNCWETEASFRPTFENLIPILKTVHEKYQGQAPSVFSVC
Outline: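 LANCE TR-FRET read-out (ex 340/em 665 nm, 100 μs delay) of ULight-JAK1 phosphorylation, with no-enzyme wells as 100% inhibition. Reaction run 1 h at room temperature in pH 7.5 HEPES buffer; enzyme 375 ng/mL, substrate 300 nM and ATP 30 μM are solution concentrations before mixing.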

T1 sequence (P23458 whole entry): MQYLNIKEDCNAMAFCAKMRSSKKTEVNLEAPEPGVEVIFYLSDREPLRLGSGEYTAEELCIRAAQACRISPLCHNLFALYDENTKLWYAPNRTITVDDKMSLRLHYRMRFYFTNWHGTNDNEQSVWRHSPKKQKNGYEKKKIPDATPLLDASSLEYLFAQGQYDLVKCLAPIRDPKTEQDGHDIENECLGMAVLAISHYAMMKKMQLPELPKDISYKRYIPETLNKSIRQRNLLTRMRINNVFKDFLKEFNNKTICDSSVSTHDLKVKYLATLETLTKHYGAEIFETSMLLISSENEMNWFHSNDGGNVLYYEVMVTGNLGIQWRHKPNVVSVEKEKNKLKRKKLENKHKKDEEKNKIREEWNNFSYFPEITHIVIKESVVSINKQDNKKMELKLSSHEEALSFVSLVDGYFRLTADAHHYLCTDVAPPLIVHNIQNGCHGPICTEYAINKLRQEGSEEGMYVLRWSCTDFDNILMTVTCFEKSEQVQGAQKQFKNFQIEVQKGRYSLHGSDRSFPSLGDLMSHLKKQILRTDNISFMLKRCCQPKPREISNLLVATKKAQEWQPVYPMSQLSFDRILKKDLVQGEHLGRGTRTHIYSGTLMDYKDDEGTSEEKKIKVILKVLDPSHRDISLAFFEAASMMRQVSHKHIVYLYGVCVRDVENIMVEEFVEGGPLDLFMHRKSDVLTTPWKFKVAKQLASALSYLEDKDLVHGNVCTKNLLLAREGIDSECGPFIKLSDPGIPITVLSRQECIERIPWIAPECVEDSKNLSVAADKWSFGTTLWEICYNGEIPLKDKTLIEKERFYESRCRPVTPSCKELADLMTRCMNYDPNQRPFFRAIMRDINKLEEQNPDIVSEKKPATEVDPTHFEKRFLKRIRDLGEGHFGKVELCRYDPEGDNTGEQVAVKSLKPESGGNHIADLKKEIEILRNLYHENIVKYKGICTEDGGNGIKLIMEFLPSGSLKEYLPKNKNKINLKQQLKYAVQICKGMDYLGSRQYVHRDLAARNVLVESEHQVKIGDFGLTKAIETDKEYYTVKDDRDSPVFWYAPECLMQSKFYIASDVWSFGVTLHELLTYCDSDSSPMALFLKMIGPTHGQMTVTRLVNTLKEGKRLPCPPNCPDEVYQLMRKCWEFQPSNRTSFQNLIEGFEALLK

Row | Compound | inhibition at 1 µM [1] [%] | inhibition at 1 µM [2] [%] | Inhibitory rate (%) JAK1 1 μM [1] [%] | Inhibitory rate (%) Tyk2 1 μM [2] [%]
1 | N#Cc1c[nH]c(=O)c2c1c(C1CCCC1)cn2-c1csc(C(N)=O)c1 [Example 118, 4-(4-cyano-3-cyclopentyl-7-oxo-6,7-dihydro-1H-pyrrolo[2,3-c]pyridin-1-yl)thiophene-2-carboxamide] | 94 | 99 |  | 
2 | NS(=O)(=O)c1ccc(-c2nn(C3CCC(O)CC3)c3cc[nH]c(=O)c23)cc1 (centres unmarked) [Example 119, 4-(1-(4-hydroxycyclohexyl)-4-oxo-4,5-dihydro-1H-pyrazolo[4,3-c]pyridin-3-yl)benzenesulfonamide] | 100 | 99 |  | 
3 | N#CCOc1ccc(-c2cn(C3CCCC3)c3c(C#N)c[nH]c(=O)c23)cc1 [Example 121, 3-(4-(cyanomethoxy)phenyl)-1-cyclopentyl-4-oxo-4,5-dihydro-1H-pyrrolo[3,2-c]pyridine-7-carbonitrile] | 87 | 97 |  | 
4 | CCNC(=O)c1cc(-c2cn(C3CCCC3)c3c(C#N)c[nH]c(=O)c23)cs1 [Example 122, 4-(7-cyano-1-cyclopentyl-4-oxo-4,5-dihydro-1H-pyrrolo[3,2-c]pyridin-3-yl)-N-ethylthiophene-2-carboxamide] | 99 | 100 |  | 
5 | CC(C)(C)NC(=O)c1cc(-c2cn(C3CCCC3)c3c(C#N)c[nH]c(=O)c23)cs1 [Example 123, N-tert-butyl-4-(7-cyano-1-cyclopentyl-4-oxo-4,5-dihydro-1H-pyrrolo[3,2-c]pyridin-3-yl)thiophene-2-carboxamide] | 99 | 99 |  | 
6 | N#Cc1c[nH]c(=O)c2c(-c3ccn[nH]3)cn(C3CCCC3)c12 [Example 125, 1-cyclopentyl-4-oxo-3-(1H-pyrazol-5-yl)-4,5-dihydro-1H-pyrrolo[3,2-c]pyridine-7-carbonitrile hydrochloride] | 80 | 96 |  | 
7 | NS(=O)(=O)c1ccc(-c2nn(C3CCC(O)CC3)c3cc[nH]c(=O)c23)cc1 (centres unmarked) [Example 126, 4-(1-(4-hydroxycyclohexyl)-4-oxo-4,5-dihydro-1H-pyrazolo[4,3-c]pyridin-3-yl)benzenesulfonamide] |  |  | 99 | 98
8 | N#CCc1ccc(-c2nn(C3CCCC3)c3cc[nH]c(=O)c23)cc1 [Example 127, (4-(1-cyclopentyl-4-oxo-4,5-dihydro-1H-pyrazolo[4,3-c]pyridin-3-yl)phenyl)acetonitrile] | 99 | 97 |  | 
9 | Cn1cc(-c2cn(C3CCCC3)c3c(C#N)c[nH]c(=O)c23)cn1 [Example 131, 1-cyclopentyl-3-(1-methyl-1H-pyrazol-4-yl)-4-oxo-4,5-dihydro-1H-pyrrolo[3,2-c]pyridine-7-carbonitrile] | 97 | 99 |  | 
10 | N#Cc1c[nH]c(=O)c2c(-c3ccccn3)cn(C3CCCC3)c12 [Example 132, 1-cyclopentyl-4-oxo-3-(pyridin-2-yl)-4,5-dihydro-1H-pyrrolo[3,2-c]pyridine-7-carbonitrile] | 27 | 74 |  | 
11 | N#Cc1c[nH]c(=O)c2c(-c3cccnc3)cn(C3CCCC3)c12 [Example 133, 1-cyclopentyl-4-oxo-3-(pyridin-3-yl)-4,5-dihydro-1H-pyrrolo[3,2-c]pyridine-7-carbonitrile] | 47 | 90 |  | 
12 | N#Cc1c[nH]c(=O)c2c(-c3cccs3)cn(C3CCCC3)c12 [Example 134, 1-cyclopentyl-4-oxo-3-(2-thienyl)-4,5-dihydro-1H-pyrrolo[3,2-c]pyridine-7-carbonitrile] | 78 | 97 |  | 
13 | CC(C)Cn1cc(-c2cn(C3CCCC3)c3c(C#N)c[nH]c(=O)c23)cn1 [Example 135, 1-cyclopentyl-3-(1-isobutyl-1H-pyrazol-4-yl)-4-oxo-4,5-dihydro-1H-pyrrolo[3,2-c]pyridine-7-carbonitrile] | 56 | 97 |  | 
14 | Cn1ccc(-c2cn(C3CCCC3)c3c(C#N)c[nH]c(=O)c23)n1 [Example 136, 1-cyclopentyl-3-(1-methyl-1H-pyrazol-3-yl)-4-oxo-4,5-dihydro-1H-pyrrolo[3,2-c]pyridine-7-carbonitrile] | 59 | 93 |  | 
15 | N#Cc1c[nH]c(=O)c2c(-c3cnn(C4CCCC4)c3)cn(C3CCCC3)c12 [Example 137, 1-cyclopentyl-3-(1-cyclopentyl-1H-pyrazol-4-yl)-4-oxo-4,5-dihydro-1H-pyrrolo[3,2-c]pyridine-7-carbonitrile] | 77 | 98 |  | 
16 | N#Cc1c[nH]c(=O)c2c(-c3cnn(C4CC4)c3)cn(C3CCCC3)c12 [Example 138, 1-cyclopentyl-3-(1-cyclopropyl-1H-pyrazol-4-yl)-4-oxo-4,5-dihydro-1H-pyrrolo[3,2-c]pyridine-7-carbonitrile] | 94 | 99 |  | 
17 | CC(C)(C#N)c1ccc(-c2cn(C3CCCC3)c3c(C#N)c[nH]c(=O)c23)cc1 [Example 139, 3-(4-(2-cyanopropan-2-yl)phenyl)-1-cyclopentyl-4-oxo-4,5-dihydro-1H-pyrrolo[3,2-c]pyridine-7-carbonitrile] | 96 | 98 |  | 
18 | NC(=O)c1cc(-c2nn(C3CCC4(CC3)OCCO4)c3cc[nH]c(=O)c23)cs1 [Example 148, 4-(1-(1,4-dioxaspiro[4.5]dec-8-yl)-4-oxo-4,5-dihydro-1H-pyrazolo[4,3-c]pyridin-3-yl)thiophene-2-carboxamide] | 99 | 98 |  | 

Next, values leading:

Row | inhibition at 1 µM [1] [%] | inhibition at 1 µM [2] [%] | Inhibitory rate (%) JAK1 1 μM [1] [%] | Inhibitory rate (%) Tyk2 1 μM [2] [%] | Compound
19 | 88 | 98 |  |  | N#Cc1c[nH]c(=O)c2c(-c3ccc(OCC(N)=O)cc3)cn(C3CCCC3)c12 [Example 120, 2-(4-(7-cyano-1-cyclopentyl-4-oxo-4,5-dihydro-1H-pyrrolo[3,2-c]pyridin-3-yl)phenoxy)acetamide]
20 | 89 | 98 |  |  | NC(=O)Cc1ccc(-c2nn(-c3c(F)cccc3F)c3c(Cl)c[nH]c(=O)c23)cc1 [Example 124, 2-(4-(7-chloro-1-(2,6-difluorophenyl)-4-oxo-4,5-dihydro-1H-pyrazolo[4,3-c]pyridin-3-yl)phenyl)acetamide]
21 | 93 | 93 |  |  | N#CCc1cccc(-c2nn(C3CCCC3)c3cc[nH]c(=O)c23)c1 [Example 128, (3-(1-cyclopentyl-4-oxo-4,5-dihydro-1H-pyrazolo[4,3-c]pyridin-3-yl)phenyl)acetonitrile]
22 | 98 | 97 |  |  | CC(C)(C)n1nc(-c2csc(C(N)=O)c2)c2c(=O)[nH]ccc21 [Example 129, 4-(1-tert-butyl-4-oxo-4,5-dihydro-1H-pyrazolo[4,3-c]pyridin-3-yl)thiophene-2-carboxamide]
23 | 76 | 96 |  |  | CC(=O)Nc1cccc(-c2cn(C3CCCC3)c3c(C#N)c[nH]c(=O)c23)c1 [Example 130, N-(3-(7-cyano-1-cyclopentyl-4-oxo-4,5-dihydro-1H-pyrrolo[3,2-c]pyridin-3-yl)phenyl)acetamide]
24 | 17 | 91 |  |  | N#Cc1c[nH]c(=O)c2c(-c3cccc(N4CCOCC4)c3)cn(C3CCCC3)c12 [Example 140, 1-cyclopentyl-3-(3-(morpholin-4-yl)phenyl)-4-oxo-4,5-dihydro-1H-pyrrolo[3,2-c]pyridine-7-carbonitrile]
25 | 99 | 92 |  |  | CC1(Cn2nc(-c3csc(C(N)=O)c3)c3c(=O)[nH]ccc32)COC1 [Example 141, 4-(1-((3-methyloxetan-3-yl)methyl)-4-oxo-4,5-dihydro-1H-pyrazolo[4,3-c]pyridin-3-yl)thiophene-2-carboxamide]
26 | 96 | 97 |  |  | NC(=O)c1ccc(-c2nn(C3CCCC3)c3cc[nH]c(=O)c23)cc1 [Example 142, 4-(1-cyclopentyl-4-oxo-4,5-dihydro-1H-pyrazolo[4,3-c]pyridin-3-yl)benzamide]
27 | 93 | 92 |  |  | NC(=O)c1cccc(-c2nn(C3CCCC3)c3cc[nH]c(=O)c23)c1 [Example 143, 3-(1-cyclopentyl-4-oxo-4,5-dihydro-1H-pyrazolo[4,3-c]pyridin-3-yl)benzamide]
28 | 99 | 95 |  |  | NC(=O)c1cc(-c2nn(-c3c(F)cccc3F)c3c(Br)c[nH]c(=O)c23)cs1 [Example 144, 4-(7-bromo-1-(2,6-difluorophenyl)-4-oxo-4,5-dihydro-1H-pyrazolo[4,3-c]pyridin-3-yl)thiophene-2-carboxamide]
29 | 99 | 100 |  |  | CNC(=O)c1cc(-c2nn(-c3c(F)cccc3F)c3c(Br)c[nH]c(=O)c23)cs1 [Example 145, 4-(7-bromo-1-(2,6-difluorophenyl)-4-oxo-4,5-dihydro-1H-pyrazolo[4,3-c]pyridin-3-yl)-N-methylthiophene-2-carboxamide]
30 | 69 | 98 |  |  | N#CCc1cccc(-c2nn(-c3c(F)cccc3F)c3c(Br)c[nH]c(=O)c23)c1 [Example 146, (3-(7-bromo-1-(2,6-difluorophenyl)-4-oxo-4,5-dihydro-1H-pyrazolo[4,3-c]pyridin-3-yl)phenyl)acetonitrile]
31 | 74 | 99 |  |  | NC(=O)Cc1cccc(-c2nn(-c3c(F)cccc3F)c3c(Br)c[nH]c(=O)c23)c1 [Example 147, 2-(3-(7-bromo-1-(2,6-difluorophenyl)-4-oxo-4,5-dihydro-1H-pyrazolo[4,3-c]pyridin-3-yl)phenyl)acetamide]
